In one assay the test system is PA. It counts as cell-based, Pseudomonas aeruginosa. The settings on record: sub-lethal concentration, after 13 days. As for the experimental part: Drug resistance study. The MIC was determined using a broth dilution method. […] The as-prepared bacterial solutions were incubated at 37° C. for 24 h. After incubation, the MIC was determined as the lowest concentration that inhibited visible growth of the tested microorganisms with unaided eyes. This same procedure was done by serial passaging of the bacteria until 30 days. Later on, three types of mutant DSPA were prepared by treating with Ag NPs, ciprofloxacin and meropenem for 15 days.

The next assay deals with DRPA (BAA-2108). The experiment in a line: Checkerboard assay with meropenem against DRPA. It counts as cell-based. The settings on record: Pseudomonas aeruginosa, BAA2108, single agent. As for the experimental part:
The degree of synergism was determined using a checkerboard assay in a 96-well plate (FIG. 4b). […] Combinations of the two treatments were prepared using the 2-fold dilution method to determine the fractional inhibitory concentration (FIC; Table S2). The FIC index is used to determine whether two treatments are synergistic (χ≤0.5), additive (0.5<χ<4) or antagonistic (χ≥4).^38 Checkerboard assay.

SMILES strings stand for the structures.

For the compound `O=C(O)c1cn(C2CC2)c2cc(N3CCNCC3)c(F)cc2c1=O` [ciprofloxacin], the “MIC increase (fold)” value with PA is 32 fold.

For the compound `C[C@@H](O)[C@H]1C(=O)N2C(C(=O)O)=C(S[C@@H]3CN[C@H](C(=O)N(C)C)C3)[C@H](C)[C@H]12` [meropenem], the MIC – broadly, the smallest concentration in the dilution series that meets the test's criterion for growth inhibition – in the assay on DRPA (BAA-2108) came to 2 mg/L.

Source of the values: US20230233477A1, “Bi2O3 NANOPARTICLES PREPARED BY THE TOP-DOWN ULTRASONICATION ROUTE AS A BROAD-[sequence] ANTIMICROBIAL TO OVERCOME DRUG RESISTANCE IN ANTIBIOTICS” (KENT STATE UNIVERSITY, priority 2022, published 2023).
